Legend:
HCoV-229E = assay: microbe, parasite or virus in culture; format: cell-based, Human coronavirus 229E
SARS-CoV-2 M^pro [1] = molecular target: T1, SARS-CoV-2 M^pro (Severe acute respiratory syndrome coronavirus 2, UniProt P0DTD1); details: ref Zhu and Xie, 2020; cited from earlier work
[2] = after the intake of 150 mg in 1 h; ref de Whalley et al., 1990; Olthof et al., 2000; cited from earlier work
SARS-CoV-2 M^pro [3] = molecular target: T1, SARS-CoV-2 M^pro; assay: Inhibition assay of the SARS-CoV-2 M^pro activity; format: biochemical

| SMILES | Concentration at which inhibition of HCoV-229E replication starts (HCoV-229E) [µM] | Inhibition of the SARS-CoV-2 M^pro activity (SARS-CoV-2 M^pro [1]) | Inhibitive effect on the M^pro activity at 100 μM (SARS-CoV-2 M^pro [3]) | further results |
| --- | --- | --- | --- | --- |
| O=C(O[C@@H]1Cc2c(O)cc(O)cc2O[C@@H]1c1cc(O)c(O)c(O)c1)c1cc(O)c(O)c(O)c1 [EGCG, epigallocatechin gallate, reference compound] | 2.5 | effectively inhibited |  |  |
| O=c1c(O[C@@H]2O[C@H](CO)[C@@H](O)[C@H](O)[C@H]2O)c(-c2ccc(O)c(O)c2)oc2cc(O)cc(O)c12 [Isoquercitrin, quercetin-3-O-glycoside] | 2.5 |  |  |  |
| O=c1c(O)c(-c2ccc(O)c(O)c2)oc2cc(O)cc(O)c12 [Quercetin, quercetin] | 5.0 |  |  | Effect on HCoV-229E replication at 2.5 μM (HCoV-229E; Huh-7 cells, 2.5 μM): slightly reduce; Inhibition of HCoV-229E replication at concentration higher than 10 μM (HCoV-229E; Huh-7 cells, higher than 10 μM): strongly inhibit; EC50 (HCoV-229E; Human coronavirus 229E, Huh-7, 24 h, read-out: EC50, inhibition of HCoV-229E replication): 4.88 µM; Quercetin concentration in plasma [2]: 5.0 ± 1.0 µM |
| Oc1cc(O)c2c(c1)O[C@H](c1ccc(O)c(O)c1)[C@H](O)C2 [(−)-epicatechin] | 20 | could not | did not inhibit | Inhibitory effect on the M^pro activity (SARS-CoV-2 M^pro [3]; range of concentrations from 0 to 200 μM): did not show an inhibitory effect |
| C[C@@H]1O[C@@H](OC[C@H]2O[C@@H](Oc3c(-c4ccc(O)c(O)c4)oc4cc(O)cc(O)c4c3=O)[C@H](O)[C@@H](O)[C@@H]2O)[C@H](O)[C@H](O)[C@H]1O [Rutin, rutin] |  |  | most effectiveness |  |
